From US10073084B2, “Predicting allergic reactions” (priority 2010, dated 2018)
“Also recorded” adds a separate entry of the source. Where two headings read alike, the source gives them in different places.

Tests used:
[1] = system: IFN-γ; assay: IFN-γ levels in supernatant of drug treated FastDC co-cultured with autologous cells (FACs); type: cell-based, human; conditions: for levels of IFN-γ (in words): FIG. 9
[2] = system: autologous T cells; assay: Modified T cell proliferation assay ([3H] thymidine), drug treated FastDC + autologous T cells; type: cell-based, human
[3] = system: skin biopsy from the same donor; assay: Skin explant assay: histological damage grade, compound-treated DC + autologous T cells + autologous skin; conditions: for Total positive: positive (Grade II-IV) explants / explants tested; for Grade I (number of skin explants with this histological grade): Grade I = negative; for Skin Explant Result (grade observed): Table 3
[4] = system: allogeneic T cells; assay: T cell proliferation assay ([3H]-Thymidine), treated DC with allogeneic T cells (Example 3); type: cell-based, human; conditions: FIG. 7C
[5] = system: CD86, CD83 and HLA-DR; assay: Flow cytometric analysis of surface markers on treated monocyte-derived dendritic cells; type: cell-based, human; conditions: after 24 hours of treatment, non-sensitizers compared with control cells
[6] = system: cAMP-responsive element modulator (CREM); assay: Real-time RT-PCR gene expression in treated dendritic cells: CREM; type: cell-based, human; conditions: 3, 6, 11 and 24 h, single donor, FIG. 6
[7] = system: chemokine (C-C motif) receptor 2 (CCR2); assay: Real-time RT-PCR gene expression in treated dendritic cells: CCR2; type: cell-based, human; conditions: 3, 6, 11 and 24 h, single donor, FIG. 6
[8] = system: skin biopsy from the same donor
[9] = from publicly available www.sens-it-iv website; cited from earlier work
[10] = system: autologous T cells; assay: T cell proliferation assay ([3H]-Thymidine), treated DC with autologous T cells (Example 3); type: cell-based, human
[11] = FIG. 8 / FIG. 10, FastDC treated 24 hours, five days co-culture
[12] = Table 2, concentrations of Table 1
[13] = Table 2, concentrations of Table 1, positive grade

OCC(O)CO [Gly, Glycerol]
IFNγ Mean ([1]; Table 3): 144.28 | autologous T cell proliferation (level in words) [2, 11]: low | Total positive ([3]; Table 2): 1/4

CC(C)O [IP, Isopropanol]
IFNγ Mean ([1]; Table 3): 207.26 | autologous T cell proliferation (level in words) [2, 11]: low | Total positive ([3]; Table 2): 0/5

Triton-X-100
IFNγ Mean ([1]; Table 3): 33.54 | autologous T cell proliferation (level in words) [2, 11]: low | level of incorporation of [3H]-Thymidine [4]: approximately 100,000 CPM | expression of the markers CD86, CD83 and HLA-DR [5]: increase in expression | CREM expression, logarithmic fold change (LFC) [6]: up-regulated for each time point | CCR2 expression, logarithmic fold change (LFC) [7]: down-regulated after each time period | Grade I (number of skin explants with this histological grade) [8]: 4 | Skin Explant Result (grade observed) [8]: Grade I | Total positive [8]: 0/4

O=S(=O)([O-])[O-].[Zn+2] [ZnSO4, Zinc Sulphate]
IFNγ Mean [1]: 13.39 | autologous T cell proliferation (level in words) [2]: low | Grade I (number of skin explants with this histological grade) [8]: 2 | Total positive [8]: 2/4 | LLNA Class [9]: Non sensitiser

CN(C)C=O [DMT, Dimethyl formamide]
IFNγ Mean ([1]; Table 3): 158.59 | autologous T cell proliferation (level in words) [2, 11]: low | Grade I (number of skin explants with this histological grade) [3, 12]: 3 | Total positive ([3]; Table 2): 0/3 | Skin Explant Result (grade observed) [3]: Grade I

N[C@@H](CCC(=O)O)C(=O)O [LGA, Glutamic Acid]
IFNγ Mean ([1]; Table 3): 48.40 | autologous T cell proliferation (level in words) [2, 11]: low | Grade I (number of skin explants with this histological grade) [3, 12]: 2 | Grade II (number of skin explants with this histological grade) [3, 13]: 1 | Total positive ([3]; Table 2): 1/3 | Skin Explant Result (grade observed) ([3]; listed as LGA (glutamic Acid)): Grade I; also recorded: Grade II

CN(C)C(=N)N=C(N)N [Met, Metformin]
levels of IFN-γ (in words) [1]: low | autologous T cell proliferation (level in words) [2, 11]: low | Grade I (number of skin explants with this histological grade) [3, 12]: 2 | Total positive ([3]; Table 2): 0/2

C[S+](C)[O-] [DMSO, Dimethyl sulfoxide]
autologous T cell proliferation (level in words) [2, 11]: low | Grade I (number of skin explants with this histological grade) [3, 12]: 2 | Grade II (number of skin explants with this histological grade) [3, 13]: 1 | Total positive ([3]; Table 2): 1/3 | Skin Explant Result (grade observed) [3]: Grade I; also recorded: Grade II

Sc1nc2ccccc2s1 [2Mercp, 2-mercaptobenzothiazole]
IFNγ Mean ([1]; Table 3): 628.81 | LLNA Class [9]: Moderate | Grade I (number of skin explants with this histological grade) [3, 12]: 1 | Grade II (number of skin explants with this histological grade) [3, 13]: 1 | Grade III (number of skin explants with this histological grade) [3, 13]: 2 | Total positive ([3]; Table 2): 3/4

CCC(C)(C)C(=O)O[C@H]1C[C@@H](C)C=C2C=C[C@H](C)[C@H](CC[C@@H]3C[C@@H](O)CC(=O)O3)[C@H]21 [SimV, Simvastatin]
Grade I (number of skin explants with this histological grade) [3, 12]: 2 | Grade III (number of skin explants with this histological grade) [3, 13]: 1 | Total positive ([3]; Table 2): 1/3

C=CCc1ccc(O)c(OC)c1 [Eugenol]
IFNγ Mean ([1]; Table 3): 425.66 | T cell proliferation response versus SDS-treated DC ([10]; summary statement, T cell source not stated, not reproducible): Two-fold | [3H]-Thymidine count relative to SDS and Triton X-100 ([10]; treated DC with autologous T cells, FIG. 7B): two-fold | difference in counts per minute (CPM) versus SDS [4]: greater than two-fold | expression of the markers CD86, CD83 and HLA-DR [5]: reduced peak of expression | CREM expression, logarithmic fold change (LFC) [6]: up-regulated until 24 hours when it becomes down-regulated | CCR2 expression, logarithmic fold change (LFC) [7]: down-regulated from 3-11 hours and then is up-regulated at 24 hours | Grade IV (number of skin explants with this histological grade) ([8]; human, 3 days): 1 | Total positive ([8]; human, 3 days): 5/5

CCCCCCCCCCCCOS(=O)(=O)[O-].[Na+] [SDS, Sodium Dodecyl Sulfate]
IFNγ Mean ([1]; Table 3): 80.33 | autologous T cell proliferation (level in words) [2, 11]: low | expression of the markers CD86, CD83 and HLA-DR [5]: increase in expression | CREM expression, logarithmic fold change (LFC) [6]: ~0 | CCR2 expression, logarithmic fold change (LFC) [7]: flipping from a down-regulation to an up-regulation | Total positive ([8]; human): 3/6

CC1(C)S[C@@H]2[C@H](NC(=O)[C@H](N)c3ccc(O)cc3)C(=O)N2[C@H]1C(=O)O [Amoxo, Amoxicillin]
Grade IV (number of skin explants with this histological grade) [8]: 1 | Total positive [8]: 4/5

Penicillin
IFNγ Mean ([1]; Table 3): 549.25 | LLNA Class [9]: Weak | Grade II (number of skin explants with this histological grade) [3, 13]: 1 | Grade III (number of skin explants with this histological grade) [3, 13]: 3 | Total positive ([3]; Table 2): 4/4 | Skin Explant Result (grade observed) ([3]; listed as Penicillin G): Grade III; also recorded: Grade II

NC[C@@H]1O[C@H](O[C@H]2[C@@H](O)[C@H](O[C@@H]3[C@@H](O)[C@H](N)C[C@H](N)[C@H]3O[C@H]3O[C@H](CN)[C@@H](O)[C@H](O)[C@H]3N)O[C@@H]2CO)[C@H](N)[C@@H](O)[C@@H]1O [Neo, Neomycin]
Grade I (number of skin explants with this histological grade) [8]: 1 | Total positive [8]: 4/5

CCOC(=O)c1ccc(N)cc1 [Bz, Benzocaine]
Total positive ([3]; Table 2): 1/1

CN(Cc1cnc2nc(N)nc(N)c2n1)c1ccc(C(=O)N[C@@H](CCC(=O)O)C(=O)O)cc1 [MTX, Methotrexate]
levels of IFN-γ (in words) [1]: low | autologous T cell proliferation (level in words) [2, 11]: low | Grade I (number of skin explants with this histological grade) [3, 12]: 1 | Total positive ([3]; Table 2): 0/1′

Tween 20
IFNγ Mean ([1]; Table 3): 188.24 | autologous T cell proliferation (level in words) [2, 11]: low | LLNA Class [9]: Non sensitiser | Grade I (number of skin explants with this histological grade) [3, 12]: 2 | Total positive ([3]; Table 2): 0/2 | Skin Explant Result (grade observed) [3]: Grade I

Nc1nnc(-c2cccc(Cl)c2Cl)c(N)n1 [L amot, Lamotrigine]
Grade II (number of skin explants with this histological grade) [3, 13]: 1 | Grade III (number of skin explants with this histological grade) [3, 13]: 2 | Grade IV (number of skin explants with this histological grade) [3, 13]: 1 | Total positive ([3]; Table 2): 4/4

O=CC=Cc1ccccc1 [CINN, Cinnamaldehyde]
IFNγ Mean ([1]; Table 3): 227.76 | Grade I (number of skin explants with this histological grade) ([8]; human, 3 days): 2 | Total positive ([8]; human, 3 days): 2/4
